Structures can show the parent of a compound that is named as a salt. Where two headings read alike, the source gives them in different places.
Columns and labels:
[1] = target: BIR3 domain of XIAP (Homo sapiens (Human), UniProt P98170); assay: TR-FRET assay for BIR3 (inhibition of binding of XIAP BIR3 domain to SMAC-derived Peptide A); conditions: 6x His-tagged BIR3 domain (aa 241-356 of XIAP) 10 nM, Peptide A 20 nM, TR-FRET
[2] = target: BIR2 domain of XIAP (Homo sapiens (Human), UniProt P98170, C202A/C213G); assay: TR-FRET assay for BIR2 (inhibition of binding of XIAP BIR2 domain to SMAC-derived Peptide A)
[3] = 6x His-tagged BIR2 domain (aa 124-240 of XIAP) 10 nM, Peptide A 20 nM, TR-FRET, read-out: IC50 BIR2

BIR2 domain of XIAP, sequence (P98170 124-240 with tags or gaps C202A/C213G limits assumed): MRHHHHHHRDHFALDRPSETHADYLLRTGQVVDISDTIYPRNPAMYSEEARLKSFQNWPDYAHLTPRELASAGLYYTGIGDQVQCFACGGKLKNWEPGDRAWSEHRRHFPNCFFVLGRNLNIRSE
BIR3 domain of XIAP, sequence (P98170 241-356 with tags or gaps limits assumed): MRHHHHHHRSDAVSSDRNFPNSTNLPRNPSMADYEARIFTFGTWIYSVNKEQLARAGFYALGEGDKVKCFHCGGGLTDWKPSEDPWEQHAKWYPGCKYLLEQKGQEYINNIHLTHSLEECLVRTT

IC50 [1]	IC50 [2, 3]	Structure (SMILES)	IC50 ([2]; IC50 BIR2)
21800 nM	6 nM	CN[C@@H](C)C(=O)N[C@H]1CN(C(=O)c2cccc(C#N)c2)c2ccccc2N(Cc2c(OC)ccc3cc(Br)ccc23)C1=O [Example 90c]	–
> 54800 nM	18 nM	CN[C@@H](C)C(=O)N[C@H]1CN(C(=O)c2ccc(C(F)(F)F)cc2)c2ccccc2N(Cc2c(OC)ccc3cc(Br)ccc23)C1=O [Example 91d]	–
38800 nM	71 nM	CN[C@@H](C)C(=O)N[C@H]1CN(C(=O)Cc2nnn[nH]2)c2ccccc2N(Cc2c(C)ccc3ccccc23)C1=O [Example 96b]	–
28100 nM	106 nM	CN[C@@H](C)C(=O)N[C@H]1CN(C(=O)CC2CCOCC2)c2ccccc2N(Cc2c(C)ccc3ccccc23)C1=O [Example 96c]	–
> 54800 nM	46 nM	CN[C@@H](C)C(=O)N[C@H]1CN(C(=O)c2ccc(C#N)cc2)c2ccccc2N(Cc2c(C)ccc3ccccc23)C1=O [Example 96d]	–
> 54800 nM	685 nM	CN[C@@H](C)C(=O)N[C@H]1CN(C(=O)CC2CCCCC2)c2ccccc2N(Cc2c(C)ccc3ccccc23)C1=O [Example 96e]	–
13600 nM	23 nM	CN[C@@H](C)C(=O)N[C@H]1CN(C(=O)Cc2cccnc2)c2ccccc2N(Cc2c(C)ccc3ccccc23)C1=O [Example 96h]	–
48000 nM	30 nM	CN[C@@H](C)C(=O)N[C@H]1CN(C(=O)c2ccc(F)cc2)c2ccccc2N(Cc2c(C)ccc3ccccc23)C1=O [Example 96i]	–
32200 nM	38 nM	CN[C@@H](C)C(=O)N[C@H]1CN(C(=O)c2ccc(C)cc2)c2ccccc2N(Cc2c(C)ccc3ccccc23)C1=O [Example 96k]	–
> 54800 nM	37 nM	CN[C@@H](C)C(=O)N[C@H]1CN(C(=O)c2ccc(OC)cc2)c2ccccc2N(Cc2c(C)ccc3ccccc23)C1=O [Example 96l]	–
> 54800 nM	100 nM	CN[C@@H](C)C(=O)N[C@H]1CN(C(=O)c2ccc(C(=O)O)cc2)c2ccccc2N(Cc2c(C)ccc3ccccc23)C1=O [Example 97, 4-[(S)-3-((S)-2-Methylamino-propionylamino)-5-(2-methyl-naphthalen-1-ylmethyl)-4-oxo-2,3,4,5-tetrahydro-benzo[b][1,4]diazepine-1-carbonyl]-benzoic acid hydrochloride]	–
> 54800 nM	188 nM	CN[C@@H](C)C(=O)N[C@H]1CN(S(=O)(=O)NC)c2ccccc2N(Cc2c(C)ccc3ccccc23)C1=O [Example 98b]	–
29000 nM	182 nM	CN[C@@H](C)C(=O)N[C@H]1CN(S(=O)(=O)c2ccc([N+](=O)[O-])cc2)c2ccccc2N(Cc2c(C)ccc3ccccc23)C1=O [Example 98d]	–
31600 nM	133 nM	CN[C@@H](C)C(=O)N[C@H]1CN(S(=O)(=O)c2ccccc2)c2ccccc2N(Cc2c(C)ccc3ccccc23)C1=O [Example 98e]	–
> 50000 nM	177 nM	CN[C@@H](C)C(=O)N[C@H]1CN(S(=O)(=O)c2ccc(OC)cc2)c2ccccc2N(Cc2c(C)ccc3ccccc23)C1=O [Example 98f]	–
53400 nM	36 nM	CN[C@@H](C)C(=O)N[C@H]1CN(C(=O)c2ccccc2C(C)=O)c2ccccc2N(Cc2c(C)ccc3ccccc23)C1=O [Example 101, (S)—N—[(S)-5-(2-Acetyl-benzoyl)-1-(2-methyl-naphthalen-1-ylmethyl)-2-oxo-2,3,4,5-tetrahydro-1H-benzo[b][1,4]diazepin-3-yl]-2-methylamino-propionamide]	–
46100 nM	503 nM	CN[C@@H](C)C(=O)N[C@H]1CN(C(=O)c2ccc(C(C)=O)cc2)c2ccccc2N(CC(=O)Nc2cccc3ccccc23)C1=O [Example 105, (2S)-N-[(3S)-1-(4-acetylbenzoyl)-5-[2-(naphthalen-1-ylamino)-2-oxoethyl]-4-oxo-2,3-dihydro-1,5-benzodiazepin-3-yl]-2-(methylamino)propanamide;2,2,2-trifluoroacetic acid]	–
> 54800 nM	17.2 nM	CN[C@@H](C)C(=O)N[C@H]1CN2C(=O)CNC(=O)c3ccc4c(c(OC)ccc4c3)CN(C1=O)c1ccccc12 [Example 108, Cyclic-5-[(S)-5-(3-Amino-acetyl)-3-((S)-2-methylamino-propionylamino)-2-oxo-2,3,4,5-tetrahydro-benzo[b][1,4]diazepin-1-ylmethyl]-6-methoxy-naphthalene-2-carboxylic amide hydrochloride]	–
42300 nM	121 nM	CN[C@@H](C)C(=O)N[C@H]1CN(C(=O)c2ccc(C(C)=O)cc2)c2ccccc2N(CC(=O)Nc2nc3ccccc3s2)C1=O [Example 109, (2S)-N-[(3S)-1-(4-acetylbenzoyl)-5-[2-(1,3-benzothiazol-2-ylamino)-2-oxoethyl]-4-oxo-2,3-dihydro-1,5-benzodiazepin-3-yl]-2-(methylamino)propanamide;2,2,2-trifluoroacctic acid]	–
> 54800 nM	295 nM	COc1ccc2ccccc2c1CN1C(=O)C(NC(=O)[C@H](C)N)C(=O)N(CC23CC4CC(CC(C4)C2)C3)c2ccccc21 (stereo partly drawn) [Example 111, (2S)-N-[5-(1-adamantylmethyl)-1-[(2-methoxynaphthalen-1-yl)methyl]-2,4-dioxo-1,5-benzodiazepin-3-yl]-2-aminopropanamide]	–
> 54800 nM	324 nM	CC[C@H](NC)C(=O)NC1C(=O)N(Cc2c(OC)ccc3ccccc23)c2ccccc2N(CC23CC4CC(CC(C4)C2)C3)C1=O (stereo partly drawn) [Example 113, (2S)-N-[5-(1-adamantylmethyl)-1-[(2-methoxynaphthalen-1-yl)methyl]-2,4-dioxo-1,5-benzodiazepin-3-yl]-2-(methylamino)butanamide]	–
> 54800 nM	530 nM	CC[C@H](NC)C(=O)NC1C(=O)N(C)c2ccccc2N(Cc2c(C)ccc3ccccc23)C1=O (stereo partly drawn) [Example 114, (2S)-N-(1-methyl-5-((2-methylnaphthalen-1-yl)methyl)-2,4-dioxo-2,3,4,5-tetrahydro-1H-benzo[b][1,4]diazepin-3-yl)-2-(methylamino)butanamide]	–

Structure (SMILES)	IC50 [1]	IC50 [2, 3]	IC50 ([2]; IC50 BIR2)
CN[C@@H](C)C(=O)N[C@H]1CN(C(=O)CS(C)(=O)=O)c2ccccc2N(Cc2c(OC)ccc3ccccc23)C1=O [Example 82, (S)—N—((S)-1-((2-Methoxynaphthalen-1-yl)methyl)-5-(2-(methylsulfonyl)acetyl)-2-oxo-2,3,4,5-tetrahydro-1H-benzo[b][1,4]diazepin-3-yl)-2-(methylamino)propanamide hydrochloride]	> 54800 nM	29 nM	–
CN[C@@H](C)C(=O)N[C@H]1CN(C(=O)CS(C)(=O)=O)c2ccccc2N(Cc2c(OC(F)F)ccc3ccccc23)C1=O [Example 83, (S)—N—((S)-1-((2-(Difluoromethoxy)naphthalen-1-yl)methyl)-5-(2-(methylsulfonyl)acetyl)-2-oxo-2,3,4,5-tetrahydro-1H-benzo[b][1,4]diazepin-3-yl)-2-(methylamino)propanamide hydrochloride]	> 54800 nM	121 nM	–
CN[C@@H](C)C(=O)N[C@H]1CN(C(=O)Cc2cccnc2)c2ccccc2N(Cc2c(OC)ccc3c(Br)cccc23)C1=O [Example 88, (S)—N—((S)-1-((5-bromo-2-methoxynaphthalen-1-yl)methyl)-2-oxo-5-(2-(pyridin-3-yl)acetyl)-2,3,4,5-tetrahydro-1H-benzo[b][1,4]diazepin-3-yl)-2-(methylamino)propanamide hydrochloride]	39900 nM	14 nM	–
CN[C@@H](C)C(=O)N[C@H]1CN(C(=O)c2ccc(C)cc2)c2ccccc2N(Cc2c(OC)ccc3c(Br)cccc23)C1=O [Example 93, (S)—N—[(S)-1-(5-Bromo-2-methoxy-naphthalen-1-ylmethyl)-5-(4-methyl-benzoyl)-2-oxo-2,3,4,5-tetrahydro-1H-benzo[b][1,4]diazepin-3-yl]-2-methylamino-propionamide hydrochloride]	47600 nM	18 nM	–
CN[C@@H](C)C(=O)N[C@H]1CN(C(=O)c2ccc(C(C)(C)O)cc2)c2ccccc2N(Cc2c(OC)ccc3cc(Br)ccc23)C1=O [Example 95, (S)—N—{(S)-1-(6-Bromo-2-methoxy-naphthalen-1-ylmethyl)-5-[4-(1-hydroxy-1-methyl-ethyl)-benzoyl]-2-oxo-2,3,4,5-tetrahydro-1H-benzo[b][1,4]diazepin-3-yl}-2-methylamino-propionamide trifluoroacetate]	36300 nM	7 nM	–
CN[C@@H](C)C(=O)N[C@H]1CN(C(=O)c2ccc(C(=O)OC)cc2)c2ccccc2N(Cc2c(C)ccc3ccccc23)C1=O [Example 96a, 4-[(S)-3-((S)-2-Methylamino-propionylamino)-5-(2-methyl-naphthalen-1-ylmethyl)-4-oxo-2,3,4,5-tetrahydro-benzo[b][1,4]diazepine-1-carbonyl]-benzoic acid methyl ester hydrochloride]	> 54800 nM	99 nM	–
CN[C@@H](C)C(=O)N[C@H]1CN(S(=O)(=O)N(C)C)c2ccccc2N(Cc2c(C)ccc3ccccc23)C1=O [Example 100, (S)—N—[(S)-5-Dimethylsulfamoyl-1-(2-methyl-naphthalen-1-ylmethyl)-2-oxo-2,3,4,5-tetrahydro-1H-benzo[b][1,4]diazepin-3-yl]-2-methylamino-propionamide hydrochloride]	> 54800 nM	249 nM	–
CC[C@H](NC)C(=O)NC1C(=O)N(Cc2c(C)ccc3ccccc23)c2ccccc2N(c2ccccc2)C1=O (stereo partly drawn) [Example 115, (2S)-2-(methylamino)-N-(1-((2-methylnaphthalen-1-yl)methyl)-2,4-dioxo-5-phenyl-2,3,4,5-tetrahydro-1H-benzo[b][1,4]diazcpin-3-yl)butanamide]	> 54800 nM	–	68.7 nM
